In patent US20220211662A1, “METHOD OF TREATING CANCER BY ADMINISTERING AN EPIGALLOCATECHIN GALLATE COMBINED WITH TYROSINE KINASE INHIBITOR” (Yunnan Daye Dihong Biotechnology Co., Ltd., priority 2019, published 2022):

Assays:
NCI-H1666 cells = assay: MTT cell viability, NCI-H1666 cells; type: cell-based, human; details: 24 hours
Source text: Detection Principle: MTT method to detect cell viability
A container is best wrapped with aluminum foil paper.
Otherwise, it is difficult to reflect the real situation. […] A sample is prevented from being volatilized.

A431 transplanted tumor = assay: A431 heterotransplanted tumor model in nude mouse

Structure (SMILES) | growth of NCI-H1666 cells (NCI-H1666 cells; in the presence of EGF) | survival rate / growth of NCI-H1666 cells (NCI-H1666 cells; without EGF) | tumor volume growth (A431 transplanted tumor; A431 transplanted tumor, combined use compared with Gefitinib alone treatment group) | body weight of A431 tumor-bearing mouse (A431 transplanted tumor; compared with control group)
COc1cc2ncnc(Nc3ccc(F)c(Cl)c3)c2cc1OCCCN1CCOCC1 [Gefitinib] | does not have a significant inhibitory effect | significant inhibitory effect | better inhibitory effect | 
O=C(O[C@@H]1Cc2c(O)cc(O)cc2O[C@@H]1c1cc(O)c(O)c(O)c1)c1cc(O)c(O)c(O)c1 [EGCG, EPIGALLOCATECHIN GALLATE] |  |  |  | promote the weight increase
